Patent US11672870B2, “Transduction” (The University of Nottingham, priority 2013, dated 2023)

Columns and labels:
NIH3t3: LSL-eGFP cells = test: Cre recombination assay; assay type: cell-based, mouse; settings: drug pre-treatment and co-treatment (FIG. 17a-d)
NIH3t3 cells = test: Fluorescence delivery assay with membrane depletion, GAG competition, Heparinase, serum or Sodium Chlorate; assay type: cell-based, mouse; settings: for effect on cell-surface binding and transduction of HETD proteins: free GAG competition (FIG. 3b); for inhibition of PTD-only protein transduction: free GAG competition (FIG. 12)
Description: For flow cytometry, cells were trypsinized (unless otherwise stated), fixed in 4% (w/v) PFA, resuspended in PBS (pH7.5) and analysed on a MoFlo™ DP (DAKO) Flow Cytometer using a 488 nm […] laser. (50,000 cells; gated on live cells by forward/side scatter). Median fluorescence was used for statistical analyses with background from unlabelled/transduced cells subtracted and values taken as ratios to the experimental control. Data shown are three experiments of triplicate samples. For microscopy, cultures were rinsed twice with PBS and imaged with inverted fluorescence microscope (Nikon Eclipse TS100).
For testing multiple cell lines we plated 2=10^5 cells/well (in 12-well plates) onto the surface relevant to the tested cell line, attached cells for 2 hours and transduced with recombinant proteins in cell-type specific growth media. After transduction cells were washed with PBS, trypsinized and fixed in 4% PFA for flow cytometry. For membrane localization, intracellular localisation or both we plated cells as above, but cultures pre-incubated in serum-free media for 1 hour before transduction. Membrane localization to assess cell interaction was achieved by a short transduction of 1 hour in serum-free media. Intracellular localization to assess transduction efficiency was achieved by a short transduction of 1 hour followed by 5 hour incubation in serum-free media only. Cell association (membrane and intracellular levels) were assessed by transducing cells for 6 hours in serum-free medium. For flow cytometry cells were trypsinized, washed and fixed in 4% PFA and for microscopy cells were imaged live after washing in PBS. For trypsin depletion of cell-surface proteins, cells were treated with trypsin/EDTA (Invitrogen) or EDTA-based cell dissociation solution (CDS) (Sigma) for 15 minutes at 37° C., followed by washes with PBS and 1× soybean trypsin inhibitor (10 mg/ml in PBS; Sigma). Cells were then treated with proteins for 1 hour at 37° C. in serum-free medium. For detergent depletion of cell membranes, cells were treated with PBS (pH7.5) containing 0.1% (v/v) Triton-X100 (Tx100) for 10 minutes at 37° C., followed by washes with PBS. Cells were then treated with proteins for 1 hour at 37° C. in serum-free medium. For GAG-treatment cells were pre-treated with GAGs in DMEM without serum before transduction and were included in the transduction media. This included heparin and chondroitin sulphate A, B and C (0-50 μg/ml).
For Heparin binding activity we incubated 1 ml of recombinant proteins (20 μg/ml) in DMEM with 50 μl of PBS-washed Heparin-sepharose beads (Sigma) for 1 hour at 37° C. shaking at 100 rpm. Media pre- and post-incubation was compared by fluorometry. For Heparinase treatment, we plated NIH3t3 cells at 2×10^5/well (in 12-well plates) and were pre-incubated in serum-free media for 1 hour with Heparinase III (0-1 U/ml) or Heparin (0-50 μg/ml). Cells were then washed and transduced with mR or P21-mR-8R (20 μg/ml in serum-free media or media with different FCS concentrations) containing Heparinase III or Heparin for 12 hours. FCS was depleted of P21-binding material by affinity chromatography. This was achieved by incubating 50 ml FCS with 2 ml Glutathione-Sepharose resin (GE Healthcare) pre-absorbed with GST-P21 protein expressed in Escherichia coli.

NIH 3t3 fibroblast cells = test: Iron oxide nanoparticle uptake (Prussian blue, iron assay); assay type: cell-based
Protocol: Confluent cells were split into 12 well plates at 200,000 cells/well and incubated for 24 hours at 37° C. After 24 hours 50 μg of Nanomag-D iron oxide nanoparticles (250 nm) and either 0, 0.01, 0.05, 0.1, 0.5, 2, 1, 5 and 10 μM of cell penetrating peptide were added to the cells with either 10% FCS DMEM or serum free DMEM media and left for 24 hours for iron nanoparticles to be internalised. After incubation cells were washed in PBS to remove excess nanoparticles then harvested for qualitative Prussian blue staining, quantitative colorimetric iron assay or fluorescence activated flow cytometry.
Cells were labelled then fixed in 4% (w/v) PFA for 15-20 minutes at 4° C. A staining solution of 2.5% potassium ferrocyanide in 2.5% HCL was added to cells and incubated for an hour at room temperature. If nanoparticles were present a blue stain appeared which is proportional to the concentration of iron.
Quantitative Colorimetric Iron Assay Cells were labelled, trypsinised and pelleted then all media removed. 40 μl of 37% HCL was added to the cells and heated at 70° C. until dissolved, then neutralised with 50 μl of NaOH. Those samples containing a high concentration of iron were diluted 1:10 then 40 μl of Quantichrom working reagent was added and the instructions in the Quantichrom iron assay followed.

Question: `N=C(N)NC(=O)c1nc(Cl)c(N)nc1N` [Amiloride] was tested. Which “effect on functional delivery of HETD-tagged Cre” value (from here on “effect on functional delivery”) (NIH3t3: LSL-eGFP cells) did it give?
Answer: Its value is “dose-dependent reduction”.

Question: Which “effect on functional delivery” value (NIH3t3: LSL-eGFP cells) does the source give for `C=C1[C@@H](C)[C@H]2[C@H](Cc3ccccc3)NC(=O)[C@]23[C@H](OC(C)=O)/C=C/[C@@](C)(O)C(=O)[C@@H](C)C/C=C/[C@H]3[C@@H]1O` [Cytochalasin D] here?
Answer: The value was “dose-dependent reduction”.

Question: For `[Na+].[O-][Cl+2]([O-])[O-]` [Sodium Chlorate], which “prevention of HETD-mediated protein delivery” value (NIH3t3 cells; inhibitor of HS synthesis (FIG. 14)) is on record?
Answer: Its value is about 7.6 fold.

Question: Which “effect on functional delivery” value (NIH3t3: LSL-eGFP cells) does the source give for `C[C@@H]1[C@H](O)[C@@H](C)/C=C/C=C/CC/C=C/C=C/C=C/C=C/C(O[C@H]2O[C@H](C)[C@@H](O)[C@H](N)[C@@H]2O)CC2O[C@](O)(CC(O)C(O)CCC(O)CC(O)CC(O)CC(=O)O[C@H]1C)CC(O)C2C(=O)O` (stereo partly drawn) [nystatin] here?
Answer: The value was “dose-dependent inhibition”.

Question: Chondroitin sulphate [CS-A] was tested. Which “effect on cell-surface binding and transduction of HETD proteins” value (“effect … of HETD proteins” below) (NIH3t3 cells) did it give?
Answer: The value was “little effect”.

Question: Which “effect … of HETD proteins” value (NIH3t3 cells) does the source give for Chondroitin sulphate [CS-B] here?
Answer: Its value is “little effect”.

Question: And the “inhibition of PTD-only protein transduction” value (NIH3t3 cells)?
Answer: The value was 2.4 fold.

Question: How did the “effect … of HETD proteins” value (NIH3t3 cells) turn out when Chondroitin sulphate [CS-C] was run?
Answer: Its value is “little effect”.

Question: What about the “inhibition of PTD-only protein transduction” value (NIH3t3 cells) of the same molecule?
Answer: The value was 4.1 fold.

Question: Which “inhibition of PTD-only protein transduction” value (NIH3t3 cells) does the source give for Heparin here?
Answer: The value was 8.1 fold.

Question: And the “inhibition of transduction of HETD proteins” value (NIH3t3 cells; free GAG in media, P21-mR-8R 20 μg/ml (FIG. 3))?
Answer: Its value is 99.8±2.1%.

Question: What about the “effect on P21 binding and nanoparticle uptake” value (NIH 3t3 fibroblast cells; added to media) of the same molecule?
Answer: The value was “inhibitor for the binding”.

Question: How did the “effect on functional delivery” value (NIH3t3: LSL-eGFP cells) turn out when “Methyl-β-cyclodextrin [methyl-b-cyclodextrin]” was run?
Answer: Its value is “dose-dependent inhibition”.

Question: How did the “decrease in nanoparticle uptake” value (NIH 3t3 fibroblast cells; increasing concentration added to media, 1 μM P218R) turn out when dextran was run?
Answer: The value was 18%.

B1: heparinase III: HS-lyase enzyme (protein, UniProt Q59289 25-659, looked up)
Heparin-sulfate lyase: QSSSITRKDFDHINLEYSGLEKVNKAVAAGNYDDAAKALLAYYREKSKAREPDFSNAEKPADIRQPIDKVTREMADKALVHQFQPHKGYGYFDYGKDINWQMWPVKDNEVRWQLHRVKWWQAMALVYHATGDEKYAREWVYQYSDWARKNPLGLSQDNDKFVWRPLEVSDRVQSLPPTFSLFVNSPAFTPAFLMEFLNSYHQQADYLSTHYAEQGNHRLFEAQRNLFAGVSFPEFKDSPRWRQTGISVLNTEIKKQVYADGMQFELSPIYHVAAIDIFLKAYGSAKRVNLEKEFPQSYVQTVENMIMALISISLPDYNTPMFGDSWITDKNFRMAQFASWARVFPANQAIKYFATDGKQGKAPNFLSKALSNAGFYTFRSGWDKNATVMVLKASPPGEFHAQPDNGTFELFIKGRNFTPDAGVFVYSGDEAIMKLRNWYRQTRIHSTLTLDNQNMVITKARQNKWETGNNLDVLTYTNPSYPNLDHQRSVLFINKKYFLVIDRAIGEATGNLGVHWQLKEDSNPVFDKTKNRVYTTYRDGNNLMIQSLNADRTSLNEEEGKVSYVYNKELKRPAFVFEKPKKNAGTQNFVSIVYPYDGQKAPEISIRENKGNDFEKGKLNLTLTINGKQQLVLVP
Question: How did the “inhibition of GET/HETD-mediated transduction” value (NIH3t3 cells; at 1 U/ml, 6 h protocol) turn out when B1 was run?
Answer: Its value is 97.2±3.4%.
